The target in data set [1] is T1, folylpolyglutamate synthetase (FPGS) (Homo sapiens, UniProt Q05932).
T1 construct: purified human leukemia cell folylpolyglutamate synthetase (FPGS); endogenous in cells; host or cells: CCRF-CEM human leukemia cells
T1 sequence (Q05932 43-587): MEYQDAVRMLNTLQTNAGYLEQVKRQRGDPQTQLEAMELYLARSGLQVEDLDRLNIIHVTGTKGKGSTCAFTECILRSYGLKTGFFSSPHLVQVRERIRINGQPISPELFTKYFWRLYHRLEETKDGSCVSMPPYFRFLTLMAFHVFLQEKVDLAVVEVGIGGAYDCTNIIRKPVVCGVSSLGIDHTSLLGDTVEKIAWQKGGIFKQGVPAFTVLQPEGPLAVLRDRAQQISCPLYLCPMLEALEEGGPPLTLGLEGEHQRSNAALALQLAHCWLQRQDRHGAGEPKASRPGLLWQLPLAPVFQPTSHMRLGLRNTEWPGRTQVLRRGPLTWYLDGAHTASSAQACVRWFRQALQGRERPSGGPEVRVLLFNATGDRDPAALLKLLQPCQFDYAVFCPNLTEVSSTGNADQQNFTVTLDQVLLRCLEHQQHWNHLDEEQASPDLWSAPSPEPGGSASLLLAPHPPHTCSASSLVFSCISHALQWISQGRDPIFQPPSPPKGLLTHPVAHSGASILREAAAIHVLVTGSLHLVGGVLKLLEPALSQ
Nature of the data set: Substrate activity towards CCRF-CEM human leukemia cell folylpolyglutamate synthetase (FPGS). Type of data set: biochemical. The note with it: for Substrate activity: Conc 50 μM, CCRF-CEM human leukemia cell FPGS; for substrate for folylpolyglutamate synthetase: result in words. As to the method:
Compounds 1, 2 and 3 were evaluated as substrates of purified human leukemia cell folylpolyglutamate synthetase (FPGS).
The assays were performed as described by McGuire, Graber, Licato, Vincenz, Coward, Nimec and Galivan in Cancer Research 49:4517 (1989).

For data set [2] the following is noted: result in words, cited from earlier work.
The conditions of data set [3]: cited from earlier work.
Data set [4] has as its system H35 hepatoma cells. Nature of the data set: Inhibition of tumor cell growth, H35 hepatoma. Type of data set: cell-based. The note with it: read-out: I50, inhibition of tumor cell growth, H35 hepatoma.
For data set [5], the system named is three tumor models. Put plainly: Antitumor activity in three tumor models (Table I). It counts as cell-based. Conditions: result in words. As to the method:
Manca cell growth assay was performed as described by Thorndike, Gaumont, Kisliuk, Sirotnak, Murthy and Nair in Cancer Research 49:158 (1989). Growth inhibition of H35hepatoma cells was measured as described by Patil, Jones, Nair, Galivan, Maley, Kisliuk, Gaumont, Duch and Ferone in the Journal of Medicinal Chemistry 32:1284 (1989) and that of CCRF-CEM human leukemia cells according to the procedures of McGuire, Graber, Licato, Vincenz, Coward, Nimec and Galivan (Cancer Research 49:4517, 1989).

The test system of data set [6] is CCRF-CEM human leukemia cells. Put plainly: Inhibition of tumor cell growth, CCRF-CEM human leukemia. Type of data set: cell-based.
Data set [7] is classed as physicochemical. The text has this: In stage II the mixed anhydride 6 or 7 is reacted with an excess amount of a diester of .tau.-methyleneglutamic acid such as diethyl-.tau.-methyleneglutamic acid. Dimethyl, dibenzyl or di-t-butyl-.tau.-methylene glutamic acid may be substituted for the diethyl derivative. Diethyl-.tau.-methylene glutamate may be added as the hydrochloride form to the mixed anhydride solutions 6 or 7, followed by the addition of an equal amount or an excess of an acid acceptor such as triethylamine. Alternatively, diethyl-.tau.-methyleneglutamate hydrochloride may be dissolved in a suitable solvent such as DMF, neutralized with an equivalent amount of the acid acceptor, and then added to the mixed anhydride solution. This reaction mixture is stirred for 18 hours at 25-30° C. and the solvent is removed by evaporation under reduced pressure. The resulting coupled product is stirred with an excess of a mixture of 0.1 N NaOH and acetonitrile for 18 hours to give target compounds 1 or 2. […] The precipitate can be recovered by filtration, washed and dried.
For the preparation of compound 3 (Scheme 3), the solution of the mixed anhydride 6 is reacted with an excess amount of the diester of 3-hydroxyglutamic acid such as dimethyl-3-hydroxyglutamate. Diethyl, dibenzyl or di-t-butyl-3-hydroxyglutamate may be substituted for the dimethyl derivative. Dimethyl-3-hydroxyglutamate may be added to the solution of the mixed anhydrie as the hydrochloride followed by the addition of an equivalent or excess amount of the acid acceptor such as triethylamine. Alternatively, dimethyl-3-hydroxyglutamate hydrochloride may be dissolved in a suitable solvent such as DMF, neutralized with an equivalent amount of the acid acceptor such as triethylamine or N-methylmorpholine and then added to the mixed anhydride solution. The reaction mixture is then stirred for 18-24 hours at 25-30° C. and the solvent is removed by rotary evaporation under reduced pressure The resulting product is stirred with an excess of a 3:1 mixture of 0.1 N NaOH:acetonitrile for 10-18 hours to give target compound 3. […]

Data set [8] has as its system Human manca lymphoid leukemia. Nature of the data set: Inhibition of tumor cell growth, Human manca lymphoid leukemia. Type of data set: cell-based. The note with it: read-out: I50, inhibition of tumor cell growth, Human manca lymphoid leukemia.
Data set [9] has as its target T2, human dihydrofolate reductase (Homo sapiens, UniProt P00374).
T2 construct: Pure human dihydrofolate reductase from lymphoblastoid cells were used; endogenous in cells
T2 sequence (P00374 1-187): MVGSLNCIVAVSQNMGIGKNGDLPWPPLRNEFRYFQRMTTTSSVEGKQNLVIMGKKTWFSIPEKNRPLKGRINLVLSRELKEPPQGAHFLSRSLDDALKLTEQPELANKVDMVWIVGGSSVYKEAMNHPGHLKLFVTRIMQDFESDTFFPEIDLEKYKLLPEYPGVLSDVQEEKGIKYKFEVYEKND
Put plainly: Inhibition of dihydrofolate reductase. Type of data set: biochemical. The note with it: pure human enzyme from lymphoblastoid cells. As to the method: Pure human dihydrofolate reductase from lymphoblastoid cells were used. The enzymatic assay was performed as described by Pastore, Plante and Kisliuk in Methods in Enzymology 34:281 (1974).

For data set [10], the system named is H35 hepatoma cells (folinic acid transport). Nature of the data set: Inhibition of folinic acid transport to H35 hepatoma cells. The note with it: for pIC50: 0.25 h, Folinic acid 2 μM, 15 min uptake, read-out: I50, inhibition of folinic acid transport to H35 hepatoma cells; for transport to H35 hepatoma cells compared to methotrexate: ability to compete with folinic acid transport; for transport to tumor cells compared to methotrexate: fold versus methotrexate. It counts as cell-based.

Data set [11] deals with mammalian cells. Conditions: versus MTX; cited from earlier work.
The subject of data set [12] is antitumor activity. Conditions: result in words; cited from earlier work.
The conditions of data set [13]: cited from earlier work. This is another data set of the same source.
The conditions of data set [14]: cited from earlier work. The source holds these as a separate data set.
Where [15] appears, read: Homo sapiens; CCRF-CEM; value marked *: corrected for the presence of the d-enantiomer of methyleneglutamate; duplicate experiments; read-out: I50, inhibition of tumor cell growth, CCRF-CEM human leukemia (*).
[16] abbreviates: Homo sapiens; CCRF-CEM; values correspond to duplicate experiments; no asterisk; read-out: I50, inhibition of tumor cell growth, CCRF-CEM human leukemia.
Setting [17] is: human leukemia cells; on a comparative basis.

pIC50: −log10 of the molar value. Values joined by “and” are separate entries in the source; they are usually repeats but may differ in a detail not shown here. Equal entries are not always repeated. “Also recorded” adds a separate entry of the source. Where two headings read alike, the source gives them in different places.

Take `Nc1nc(N)c2nc(CCc3ccc(C(=O)N[C@@H](CCC(=O)O)C(=O)O)cc3)cnc2n1` [10-Deazaaminopterin, reference compound]: the Substrate activity in [1] came to 1020. Besides, the “metabolism to polyglutamyl derivatives” value in data set [2] is on record as “undergo polyglutamylation”.

On to `C#CCN(Cc1ccc2nc(N)[nH]c(=O)c2c1)c1ccc(C(=O)N[C@@H](CCC(=O)O)C(=O)O)cc1` [CB 3717, N^10-propargyl-5,8-dideazafolic acid], for which, in [3], the “conversion to polyglutamyl derivative in normal murine tissues” value is listed as “converted to its polyglutamyl derivatives in normal murine tissues”.

On to `C=C(CC(NC(=O)c1ccc(CCc2cnc3nc(N)nc(N)c3n2)cc1)C(=O)O)C(=O)O` (stereo not shown) [Compound 1, 4-amino-4-deoxy-10-deazapteroyl-.tau.-methyleneglutamic acid], for which the pIC50 in data set [4] is 8.05; in data set [6] (setting [15]), 8.30; in data set [6] (setting [16]), 8.40; in [8], 8.15; in data set [9], 7.52; in data set [10], 8.40. Besides, the “antitumor activity in three tumor models” value in [5] was “excellent antitumor activity”. Moreover, in data set [6] (setting [17]), the “inhibition of growth of human leukemia cells compared to methotrexate” value is listed as “twice as powerful as methotrexate”. In addition, the solubility in alkali result in data set [7] is given as “soluble in alkali”. Moreover, the Substrate activity in data set [1] is 5 and 3. Further, the “substrate for folylpolyglutamate synthetase” value in [1] is on record as “not substrates of CCRF-CEM human leukemia cell folylpolyglutamate synthetase; also recorded: None of the new antifolates (1, 2 or 3) is a substrate for folylpolyglutamate synthetase”. For the same molecule, the “transport to H35 hepatoma cells compared to methotrexate” value in data set [10] is given as “transported more efficiently to H35 hepatoma cells than methotrexate”. In addition, in data set [10], the “transport to tumor cells compared to methotrexate” value is listed as “three to five times more efficiently than methotrexate”.

As to `C=C(CC(NC(=O)c1ccc(C(CC)Cc2cnc3nc(N)nc(N)c3n2)cc1)C(=O)O)C(=O)O` (stereo not shown) [Compound 2, 4-amino-4-deoxy-10-ethyl-10-deazapteroyl-.tau.-methyleneglutamic acid], the pIC50 in data set [4] is 7.96; in data set [6] (setting [15]), 8.22; in data set [6] (setting [16]), 8.40; in [8], 8.05; in data set [9] it was 7.49; in [10] it was 8.52. Moreover, the “antitumor activity in three tumor models” value in data set [5] is on record as “excellent antitumor activity”. For the same molecule, the “inhibition of growth of human leukemia cells compared to methotrexate” value in data set [6] (setting [17]) is on record as “twice as powerful as methotrexate”. Besides, in data set [7], the solubility in alkali entry was “soluble in alkali”. For the same molecule, the Substrate activity in data set [1] is 3 and 6. Moreover, in [1], the “substrate for folylpolyglutamate synthetase” value is given as “not substrates of CCRF-CEM human leukemia cell folylpolyglutamate synthetase; also recorded: None of the new antifolates (1, 2 or 3) is a substrate for folylpolyglutamate synthetase”. The “transport to H35 hepatoma cells compared to methotrexate” value in data set [10] is “transported more efficiently to H35 hepatoma cells than methotrexate”. Also, in [10], the “transport to tumor cells compared to methotrexate” value is “three to five times more efficiently than methotrexate”.

Regarding `Nc1nc(N)c2nc(CCc3ccc(C(=O)NC(C(=O)O)C(O)CC(=O)O)cc3)cnc2n1` (stereo not shown) [Compound 3, 4-amino-4-deoxy-10-deazapteroyl-3-hydroxyglutamic acid], the pIC50 in data set [4] was 7.55; in [8] it was 7.82; in [9], 7.48. Further, in data set [5], the “antitumor activity in three tumor models” value was “excellent antitumor activity”. Besides, the solubility in alkali result in [7] is “soluble in alkali”. Further, the Substrate activity in data set [1] is 8 and 10. The “substrate for folylpolyglutamate synthetase” value in data set [1] is “not substrates of CCRF-CEM human leukemia cell folylpolyglutamate synthetase; also recorded: None of the new antifolates (1, 2 or 3) is a substrate for folylpolyglutamate synthetase”.

Take `CCC(Cc1cnc2nc(N)nc(N)c2n1)c1ccc(C(=O)N[C@@H](CCC(=O)O)C(=O)O)cc1` (stereo partly shown) [Compound 10-EDAM, 10-ethyl-10-deazaaminopterin]: the “transport to mammalian cells compared to MTX” value in data set [11] is “enhanced transport to mammalian cells compared to MTX”. The antitumor activity entry in data set [12] is given as “wide spectrum of antitumor activity”. Also, the “metabolism to polyglutamyl derivatives” value was “metabolized to their poly-.tau.-glutamyl derivatives” in [2] and “undergo polyglutamylation” in data set [2] (listed as 10-ethyl derivative).

Turning to `CN(Cc1cnc2nc(N)nc(N)c2n1)c1ccc(C(=O)N[C@@H](CCC(=O)O)C(=O)O)cc1` [Methotrexate, reference compound], in [13], the “formation of poly-glutamyl metabolites in rodent tissues” value is “formation of these metabolites in rodent tissues”. For the same molecule, the pIC50 in data set [4] is 8.00; in data set [6] (CCRF-CEM; values correspond to duplicate experiments; no asterisk; read-out: I50, inhibition of tumor cell growth, CCRF-CEM human leukemia), 8.10; in [6] (Homo sapiens, CCRF-CEM; values correspond to duplicate experiments; no asterisk; read-out: I50, inhibition of tumor cell growth, CCRF-CEM human leukemia), 7.92; in [8], 8.22; in [10] it was 7.74. For the same molecule, the “metabolism to poly-glutamates in human tissues” value in data set [14] is on record as “metabolism of the well known anticancer drug methotrexate to its poly-.tau.-glutamates in human tissues”. Besides, the results for the “metabolism to polyglutamyl derivatives” value in [2] and in data set [2] (listed as MTX) were “undergo polyglutamylation” and “metabolized to their poly-.tau.-glutamyl derivatives”, respectively.

The values above are taken from patent US4996207A, “Three new non-polyglutamatable deazaaminopterins” (priority 1990, dated 1991).
